Data taken from the PolyMetriX glass transition set.

Compared with `*Sc1ccc(P(=O)(c2ccccc2)c2ccc(Sc3ccc(-c4ccc(*)cc4)cc3)cc2)cc1` (repeat unit), `*c1ccc(-c2ccc(-c3cc(-c4ccc(Oc5ccc(-c6cc(*)nc7ccccc67)cc5)cc4)c4ccccc4n3)cc2)cc1` (repeat unit) is higher in glass transition temperature: 232.00 °C for the first, 326.00 °C for the second.

Compared with `*c1ccc(Oc2ccc(N3C(=O)C4CCC5C(=O)N(*)C(=O)C5C4C3=O)cc2)cc1` (repeat unit), `*c1ccc(Oc2cccc(Oc3ccc(-n4c(=O)c5cc6c(=O)n(*)c(=O)c6cc5c4=O)cc3)c2C#N)cc1` (repeat unit) is lower in glass transition temperature: 342.00 °C for the first, 328.00 °C for the second.

First: *c1nnc(-c2ccc(Oc3ccc(/C=C/c4ccc(Oc5ccc(*)c6ccccc56)cc4)cc3)c3ccccc23)o1 (repeat unit)
Second: *Oc1ccc(C(=O)c2ccc(Oc3ccc(C4(c5ccc(*)cc5)c5ccccc5-c5ccccc54)cc3)cc2)c2ccccc12 (repeat unit)
The glass transition temperature of the first is lower: 238.00 °C for the first, 260.00 °C for the second.

Compared with `*CC(=O)Nc1ccc(Oc2ccc(NC(=O)COc3ccc4ccccc4c3Sc3c(O*)ccc4ccccc34)cc2)cc1` (repeat unit), `*Oc1ccc(NC(=O)Nc2ccccc2CCc2ccccc2NC(=O)Nc2ccc(*)cc2)cc1` (repeat unit) is lower in glass transition temperature: 245.00 °C for the first, 232.00 °C for the second.

Compared with `*c1ccc(-c2ccc(-c3ccc4nc(Oc5cc(-c6ccccc6)c6cc(*)ccc6n5)cc(-c5ccccc5)c4c3)cc2)cc1` (repeat unit), `*c1ccc(Cc2ccc(-n3nc(-c4ccccc4)cc3-c3cccc(-c4cc(-c5ccccc5)nn4*)c3)cc2)cc1` (repeat unit) is lower in glass transition temperature: 308.00 °C for the first, 225.00 °C for the second.

Going from `*CCCCCCCCOC(=O)NNC(=O)CCCCCCCCC(=O)NNC(=O)O*` (repeat unit) to `*CCCCCCCCCCCCOC(=O)NCCCCCCNC(=O)O*` (repeat unit), the glass transition temperature falls from 38.00 °C to 36.00 °C.

Compared with `*Nc1cc(NC(=O)c2cccc(C(*)=O)c2)cc(C(=O)OCCOC(=O)/C=C/c2ccc(N(C)C)cc2)c1` (repeat unit), `*Nc1cccc(CCc2ccc(NC(=O)c3ccc(C(*)=O)cc3)cc2)c1` (repeat unit) is higher in glass transition temperature: 186.00 °C for the first, 203.00 °C for the second.

Going from `*c1ccc(C(=O)c2ccc(Oc3ccc(-c4nn(*)c(=O)c5ccccc45)cc3Br)cc2)cc1` (repeat unit) to `*c1ccc(Oc2ccc(-c3ccc(Oc4ccc(-n5c(=O)c6cc7c(=O)n(*)c(=O)c7cc6c5=O)cc4)cc3)cc2)cc1` (repeat unit), the glass transition temperature rises from 254.00 °C to 300.00 °C.

Going from `*CCCCCC(=O)Oc1ccc2ccc(OC(=O)CCCCCn3c(=O)c4cc5c(=O)n(*)c(=O)c5cc4c3=O)cc2c1` (repeat unit) to `*c1ccc(Oc2cc(C(C)(C)C)c(Oc3ccc(-n4c(=O)c5cc6c(=O)n(*)c(=O)c6cc5c4=O)cc3)cc2C(C)(C)C)cc1` (repeat unit), the glass transition temperature rises from 98.00 °C to 298.00 °C.

Compared with `*CC#C/C(C#CCOC(=O)CCCCCCCCC(=O)O*)=C\c1ccc(C#Cc2ccccc2)cc1` (repeat unit), `*CCCCCCCCCCNC(=O)c1ccc(C(=O)N*)c(Oc2ccccc2)c1` (repeat unit) is higher in glass transition temperature: 60.00 °C for the first, 94.00 °C for the second.

Going from `*/C=C/c1ccc(/C=C/[Si](C)(C)c2cccc([Si](*)(C)C)c2)cc1` (repeat unit) to `*Oc1ccc(/C=C/C(=O)c2ccc(Oc3ccc(C(C)(C)c4ccc(*)c(C)c4)cc3C)cc2)cc1` (repeat unit), the glass transition temperature rises from 33.00 °C to 157.00 °C.

First: *c1ccc2c(c1)C(=O)N(c1cccc(C(=O)Nc3ccc(Oc4cccc(Oc5ccc(NC(=O)c6cccc(N7C(=O)c8ccc(C(*)(C(F)(F)F)C(F)(F)F)cc8C7=O)c6)cc5)c4)cc3)c1)C2=O (repeat unit)
Second: *C(=O)c1ccc2c(c1)C(=O)N(c1ccc(Oc3ccc(C(=O)c4cccc(C(=O)c5ccc(Oc6ccc(N7C(=O)c8ccc(*)cc8C7=O)cc6C(F)(F)F)cc5)n4)cc3)c(C(F)(F)F)c1)C2=O (repeat unit)
The glass transition temperature of the first is higher: 264.00 °C for the first, 225.20 °C for the second.

Going from `*CC(O)COc1ccc(C(C)(C)c2ccc(OCC(O)COc3ccc(NC(=O)CCCCC(=O)Nc4ccc(O*)cc4)cc3)cc2)cc1` (repeat unit) to `*CC(O)COc1ccc(C(C)(C)c2ccc(OCC(O)COc3ccc(NC(=O)CCCC(=O)Nc4ccc(O*)cc4)cc3)cc2)cc1` (repeat unit), the glass transition temperature falls from 112.00 °C to 105.00 °C.

Compared with `*CC(*)OC(=O)c1ccccc1` (repeat unit), `*CC(*)C(=O)Oc1cccc(N(C)C)c1` (repeat unit) is lower in glass transition temperature: 70.40 °C for the first, 47.00 °C for the second.

Compared with `*c1cccc(-c2cccc(C(F)(F)C(F)(F)C(*)(F)F)c2)c1` (repeat unit), `*c1cccc(C(c2cccc(N3C(=O)c4ccc(-c5ccc6c(c5)C(=O)N(*)C6=O)cc4C3=O)c2)(C(F)(F)F)C(F)(F)F)c1` (repeat unit) is higher in glass transition temperature: 45.00 °C for the first, 267.00 °C for the second.

Compared with `*c1cc(/N=N/c2ccc(OC)cc2)cc(*)c1O` (repeat unit), `*Oc1ccc2c(c1)C1(CC2(C)C)CC(C)(C)c2ccc(OC(*)=O)cc21` (repeat unit) is higher in glass transition temperature: 134.00 °C for the first, 228.00 °C for the second.

Compared with `*CC(*)(C)C(=O)OCC1(CC)COC1` (repeat unit), `*CC(*)(C)C(=O)OCC#C` (repeat unit) is lower in glass transition temperature: 105.00 °C for the first, 58.00 °C for the second.

Going from `*c1ccc2c(c1)C(=O)N(c1ccc(N(c3ccc(C#N)cc3)c3ccc(N4C(=O)c5ccc(C(*)(C(F)(F)F)C(F)(F)F)cc5C4=O)cc3)cc1)C2=O` (repeat unit) to `*C(=O)Nc1ccc(Cc2ccc(N3C(=O)c4ccc(*)cc4C3=O)cc2)cc1` (repeat unit), the glass transition temperature falls from 321.00 °C to 279.50 °C.

Compared with `*c1ccc(Oc2ccc3ccccc3c2-c2c(Oc3ccc(N4C(=O)c5ccc(NC(=O)Nc6cccc(NC(=O)Nc7ccc8c(c7)C(=O)N(*)C8=O)n6)cc5C4=O)cc3)ccc3ccccc23)cc1` (repeat unit), `*c1ccc(Oc2ccc(C3(c4ccc(Oc5ccc(N6C(=O)CC(=O)N(*)C6=S)cc5)cc4)c4ccccc4-c4ccccc43)cc2)cc1` (repeat unit) is lower in glass transition temperature: 283.00 °C for the first, 175.00 °C for the second.

First: */C=C/C1CC(*)C(C#N)([Si](C)(C)O[Si](C)(C)O[Si](C)(C)C)C1 (repeat unit)
Second: *OC(=O)CNC(=O)CCCCCCCCC(=O)NCC(=O)OC1COC2C(*)COC12 (repeat unit)
The glass transition temperature of the first is lower: 47.00 °C for the first, 66.00 °C for the second.

First: *CCCCCCCCCCCCCCCCOC(=O)CCCCCCC(=O)O* (repeat unit)
Second: *CCCCCCCCCCC(=O)N(*)C (repeat unit)
The glass transition temperature of the first is lower: -26.00 °C for the first, -12.00 °C for the second.

Going from `*OC(=O)c1cccc(OCCCCCCCCOc2cccc(C(=O)OC3COC4C(*)COC34)c2)c1` (repeat unit) to `*CCCCCCOC(=O)c1cccc(C(=O)O*)c1` (repeat unit), the glass transition temperature falls from 33.00 °C to 5.50 °C.

Going from `*CC(*)c1ccccc1COCCc1ccccc1` (repeat unit) to `*CCCCOC(=O)C(Cc1ccccc1)NC(=O)/C=C/C(=O)NC(Cc1ccccc1)C(=O)O*` (repeat unit), the glass transition temperature rises from 63.00 °C to 103.00 °C.

First: *C(=O)Oc1ccc(C(=O)Oc2cccc(OC(=O)c3ccc(OC(=O)c4ccc(*)nc4)cc3)c2)cc1 (repeat unit)
Second: *Oc1ccc(OC(=O)c2ccc(C(C)(C)c3ccc(C(*)=O)cc3)cc2)cc1 (repeat unit)
The glass transition temperature of the first is lower: 110.00 °C for the first, 195.00 °C for the second.

First: *CCN(CCOC(=O)Nc1ccc(C)c(NC(=O)O*)c1)c1ccc(/N=N/c2ccc([N+](=O)[O-])cc2C)c(C)c1 (repeat unit)
Second: *CCCCCCCOC(=O)Nc1ccc(C)c(NC(=O)O*)c1 (repeat unit)
The glass transition temperature of the first is higher: 135.00 °C for the first, 61.00 °C for the second.

Going from `*Oc1cccc(NC(=O)CCCCCCCCCC(=O)Nc2ccc(*)cc2)c1` (repeat unit) to `*CC(*)(C)C(=O)OCCCCCCCCCCOc1ccc(C(=O)Oc2ccc(C(=O)/C=C/c3c(C)c4ccccc4n3CCCC)cc2)cc1` (repeat unit), the glass transition temperature falls from 110.00 °C to 57.00 °C.

Going from `*Oc1c(C)cc(-c2cc(C)c(OC(=O)CCCCC(*)=O)c(C)c2)cc1C` (repeat unit) to `*Oc1c(Cl)cc(C(C)(C)c2cc(Cl)c(OC(*)=O)c(Cl)c2)cc1Cl` (repeat unit), the glass transition temperature rises from 108.00 °C to 227.00 °C.

Compared with `*C(=O)Nc1cc(NC(=O)c2cncc(*)c2)cc(-c2nnc(-c3ccccn3)o2)c1` (repeat unit), `*Cc1cccc(CNC(=O)C2=C(C(=O)N*)C3C=CC2C3)c1` (repeat unit) is higher in glass transition temperature: 185.00 °C for the first, 291.00 °C for the second.

First: *Oc1ccc(CC(*)=O)cc1 (repeat unit)
Second: *Oc1ccc(C(c2ccc(OC(*)=O)cc2)(C(F)(F)Cl)C(F)(F)Cl)cc1 (repeat unit)
The glass transition temperature of the first is lower: 117.00 °C for the first, 183.50 °C for the second.

First: *O[Si](C)(C)CCCC(=O)Oc1ccc(/C=N/c2ccc(Cc3ccc(/N=C/c4ccc(OC(=O)CCC[Si](*)(C)C)cc4)cc3)cc2)cc1 (repeat unit)
Second: *Oc1ccc(/C=N/N=C/c2ccc(Oc3ccc(C(c4ccc(*)cc4)(C(F)(F)F)C(F)(F)F)cc3)cc2)cc1 (repeat unit)
The glass transition temperature of the first is lower: 68.00 °C for the first, 162.00 °C for the second.

Compared with `*Oc1ccc(S(=O)(=O)c2ccc(Oc3c(C)cc(C(c4cc(C)c(*)c(C)c4)(C(F)(F)F)C(F)(F)F)cc3C)cc2)cc1` (repeat unit), `*/C(=C(\C#N)c1ccc(C(=O)OC2CCN(*)CC2)cc1)c1ccc(OC)cc1` (repeat unit) is lower in glass transition temperature: 248.00 °C for the first, 183.00 °C for the second.

First: *CCC([2H])C(*)([2H])C (repeat unit)
Second: *CC(*)C(=O)OCCCCSC (repeat unit)
The glass transition temperature of the first is higher: -47.50 °C for the first, -70.00 °C for the second.

First: *CCCC(C)(C)CNC(=O)CCCCC(=O)N* (repeat unit)
Second: *CC(*)c1cc[n+](CCCCCCCC)cc1 (repeat unit)
The glass transition temperature of the first is lower: 77.00 °C for the first, 206.20 °C for the second.

Compared with `*c1ccc(C2(c3ccc(-c4cc(-c5ccccc5)c5cc(C6(c7ccc8nc(*)cc(-c9ccccc9)c8c7)c7ccccc7C(=O)c7ccccc76)ccc5n4)cc3)c3ccccc3C(=O)c3ccccc32)cc1` (repeat unit), `*CCC1C(=O)N(c2ccc(N(C)C)cc2)C(=O)C1*` (repeat unit) is lower in glass transition temperature: 390.00 °C for the first, 195.00 °C for the second.
